From ChEMBL document CHEMBL4610099, “Galtonosides A-E: Antiproliferative and Antiplasmodial Cholestane Glycosides from Galtonia regalis” (J Nat Prod, 2020)
Calls of active or inactive are those of the source. No cut-off for these calls is given here.

Tests used:
[1] = tested on: Erythrocyte; assay: Hemolytic activity against human erythrocytes infected with ring stage Plasmodium falciparum Dd2 assessed as reduction in cell viability at 11 uM up to 72 hrs by Giemsa-staining based light microscopic analysis
[2] = tested on: Plasmodium falciparum; assay: Antiplasmodial activity against ring stage Plasmodium falciparum Dd2 infected in human erythrocytes assessed as reduction in trophozoites formation at 11 uM up to 72 hrs by Giemsa-staining based light microscopic analysis; format: functional, organism-based
[3] = tested on: A2780; assay: Antiproliferative activity against human A2780 cells assessed as reduction in cell viability after 2 days hrs by AlamarBlue assay; format: functional, cell-based; conditions: A2780, 48 h
[4] = tested on: Plasmodium falciparum; assay: Antiplasmodial activity against ring stage Plasmodium falciparum Dd2 assessed as reduction in parasite growth after 72 hrs by SYBR Green 1 staining based assay; format: functional, organism-based; conditions: Dd2, 72 h
[5] = tested on: Erythrocyte; assay: Hemolytic activity against human erythrocytes infected with ring stage Plasmodium falciparum Dd2 assessed as morphological changes at 11 uM up to 72 hrs by Giemsa-staining based light microscopic analysis; format: ADME, cell-based
[6] = tested on: Erythrocyte; assay: Hemolytic activity against human erythrocytes infected with ring stage Plasmodium falciparum Dd2 assessed as morphological changes at IC50 concentration up to 72 hrs; format: ADME, cell-based
[7] = tested on: Erythrocyte; assay: Hemolytic activity against human erythrocytes assessed as morphological changes at IC50 concentration up to 72 hrs; format: ADME, cell-based
[8] = tested on: Plasmodium falciparum; assay: Antiplasmodial activity against ring stage Plasmodium falciparum Dd2 infected in human erythrocytes assessed as reduction in trophozoites formation at 3 uM up to 72 hrs by Giemsa-staining based light microscopic analysis; format: functional, organism-based
[9] = tested on: Erythrocyte; assay: Hemolytic activity against human erythrocytes infected with ring stage Plasmodium falciparum Dd2 assessed as reduction in cell viability at 3 uM up to 72 hrs by Giemsa-staining based light microscopic analysis
[10] = tested on: Erythrocyte; assay: Hemolytic activity against human erythrocytes infected with ring stage Plasmodium falciparum Dd2 assessed as morphological changes at 3 uM up to 72 hrs by Giemsa-staining based light microscopic analysis; format: ADME, cell-based
[11] = tested on: Erythrocyte; assay: Hemolytic activity against human erythrocytes infected with ring stage Plasmodium falciparum Dd2 assessed as reduction in cell viability at 6 uM up to 72 hrs by Giemsa-staining based light microscopic analysis
[12] = tested on: Erythrocyte; assay: Hemolytic activity against human erythrocytes infected with ring stage Plasmodium falciparum Dd2 assessed as morphological changes at 6 uM up to 72 hrs by Giemsa-staining based light microscopic analysis; format: ADME, cell-based
[13] = tested on: Plasmodium falciparum; assay: Antiplasmodial activity against ring stage Plasmodium falciparum Dd2 infected in human erythrocytes assessed as reduction in trophozoites formation at 6 uM up to 72 hrs by Giemsa-staining based light microscopic analysis; format: functional, organism-based

| SMILES | Activity [1] | Activity [2] | IC50 [3] | IC50 [4] | Activity [5] | Activity [6] | Activity [7] | Activity [8] | Activity [9] | Activity [10] | Activity [11] | Activity [12] | Activity [13] |
| --- | --- | --- | --- | --- | --- | --- | --- | --- | --- | --- | --- | --- | --- |
| COc1cc(C(=O)O[C@H]2[C@H](O[C@@H]3[C@@H](OC(C)=O)[C@H](O[C@H]4C[C@H]5[C@@H]6CC=C7C[C@@H](O)CC[C@]7(C)[C@H]6CC[C@]5(C)[C@H]4[C@H](C)C(=O)CCC(C)C)OC[C@@H]3O)OC[C@@H](O)[C@@H]2O)cc(OC)c1OC | Non-Toxic | Active | 100 nM | 610 nM | Non-Toxic | Non-Toxic | Non-Toxic |  |  |  |  |  |  |
| COc1cc(C(=O)O[C@H]2[C@H](O[C@@H]3[C@@H](OC(C)=O)[C@H](O[C@H]4C[C@H]5[C@@H]6CC=C7C[C@@H](O)CC[C@]7(C)[C@H]6CC[C@]5(C)[C@@]4(O)[C@H](C)C(=O)CCC(C)C)OC[C@@H]3O)OC[C@@H](O)[C@@H]2O)cc(OC)c1OC | Non-Toxic | Active | 90 nM | 560 nM | Non-Toxic | Non-Toxic | Non-Toxic |  |  |  |  |  |  |
| COc1ccc(C(=O)O[C@H]2[C@H](O[C@H]3C[C@H]4[C@@H]5CC=C6C[C@@H](O)CC[C@]6(C)[C@H]5CC[C@]4(C)[C@@]3(O)[C@H](C)C(=O)CCC(C)C)OC[C@H](O)[C@@H]2O)cc1OC |  |  | 140 nM | 210 nM |  | Non-Toxic | Non-Toxic | Active | Non-Toxic | Non-Toxic |  |  |  |
| COc1ccc(C(=O)O[C@H]2[C@H](O[C@@H]3[C@@H](OC(C)=O)[C@H](O[C@H]4C[C@H]5[C@@H]6CC=C7C[C@@H](O)CC[C@]7(C)[C@H]6CC[C@]5(C)[C@@]4(O)[C@H](C)C(=O)CCC(C)C)OC[C@@H]3O)OC[C@@H](O)[C@@H]2O)cc1OC |  |  | 100 nM | 1510 nM |  | Non-Toxic | Non-Toxic |  |  |  |  |  |  |
| COc1ccc(C(=O)O[C@H]2[C@H](O[C@@H]3[C@@H](OC(C)=O)[C@H](O[C@H]4C[C@H]5[C@@H]6CC=C7C[C@@H](O)CC[C@]7(C)[C@H]6CC[C@]5(C)[C@H]4[C@H](C)C(=O)CCC(C)C)OC[C@@H]3O)OC[C@@H](O)[C@@H]2O)cc1OC | Non-Toxic | Active | 100 nM | 630 nM | Non-Toxic | Non-Toxic | Non-Toxic |  |  |  |  |  |  |
| CC(=O)O[C@H]1[C@H](O[C@H]2C[C@H]3[C@@H]4CC=C5C[C@@H](O)CC[C@]5(C)[C@H]4CC[C@]3(C)[C@H]2[C@H](C)C(=O)CCC(C)C)OC[C@H](O)[C@@H]1O[C@@H]1OC[C@@H](O)[C@H](O)[C@H]1OC(=O)/C=C/c1ccccc1 |  |  | 100 nM | 420 nM |  | Non-Toxic | Non-Toxic |  |  |  | Non-Toxic | Non-Toxic | Active |
| C[C@@H]1CC[C@H]2[C@@H](C)C(=O)O[C@@H]3O[C@@]4(C)CC[C@@H]1[C@]32OO4 [ARTEMISININ] |  |  |  | 6.5 nM |  |  |  |  |  |  |  |  |  |
| CC(=O)O[C@H]1[C@H](O[C@H]2C[C@H]3[C@@H]4CC=C5C[C@@H](O)CC[C@]5(C)[C@H]4CC[C@]3(C)[C@@]2(O)[C@H](C)C(=O)CCC(C)C)OC[C@H](O)[C@@H]1O[C@@H]1OC[C@@H](O)[C@H](O)[C@H]1OC(=O)/C=C/c1ccccc1 |  |  | 100 nM | 950 nM |  | Non-Toxic | Non-Toxic |  |  |  |  |  |  |
